Measured values published in patent US20160153997A1, “OLIGOPEPTIDE SPECIFIC TO COLORECTAL CANCER CELL AND APPLICATION THEREOF” (National Tsing Hua University, priority 2014, published 2016).
Where “and” joins values, the source holds several entries; their conditions need not be identical. Equal entries are not always repeated.

Columns and labels:
Experiment in all cases: Capturing ability analysis, peptide-bonded magnetic beads mixed with cells
Assay type in all cases: cell-based
[1] = tested on: colorectal cancer stem cells (CR-CSC); conditions: colorectal cancer stem cell (CR-CSC); 2×10^5 cells, room temperature, 25 rpm 30 minutes
Source text: (§1) In one embodiment, the peptide sequences of Seq ID: NO. 1 to Seq ID: NO. 3 are respectively bonded to the beads and mixed with different cell lines , respectively, including colorectal cancer cells (HCT-8), colorectal cancer stem cells (CR-CSC), human hepatoma cells (HepG2), human in situ pancreatic cancer cells (BxPC-3), human lung adenocarcinoma cells (A549) and human breast cancer cells (MCF7). Wherein, the beads having peptide sequences are mixed with each cell line at room temperature for 25 rpm 30 minutes, and the cell number of each cell line is 2×10^5. After washing for several times, the number of cells captured with magnetic beads having the above peptide sequences are calculated and the results are shown as Table 1 below.

[2] = tested on: colorectal cancer cells (HCT-8); conditions: colorectal cancer cell (HCT-8); 2×10^5 cells, room temperature, 25 rpm 30 minutes
Source text: as §1

[3] = tested on: human breast cancer cells (MCF7); conditions: human breast cancer cell (MCF7); 2×10^5 cells, room temperature, 25 rpm 30 minutes
Source text: as §1

[4] = tested on: human in situ pancreatic cancer cells (BxPC-3); conditions: human in situ pancreatic cancer cell (BxPC-3); 2×10^5 cells, room temperature, 25 rpm 30 minutes
Source text: as §1

[5] = tested on: human hepatoma cells (HepG2); conditions: human hepatoma cell (HepG2); 2×10^5 cells, room temperature, 25 rpm 30 minutes
Source text: as §1

[6] = tested on: human lung adenocarcinoma cells (A549); conditions: human lung adenocarcinoma cell (A549); 2×10^5 cells, room temperature, 25 rpm 30 minutes
Source text: as §1

Row | Substance | Capturing ability (%) [1] | Capturing ability (%) [2] | Capturing ability (%) [3] [%] | Capturing ability (%) [4] [%] | Capturing ability (%) [5] [%] | Capturing ability (%) [6] [%]
1 | Seq ID: NO. 1: peptide sequence screened from M13 phage display peptide library, having binding specificity and affinity to HCT-8 or CR-CSC (AELAKLPLF) | 22.97 ± 4.29% | 43.30% and 43.40 ± 7.23% | 12.84 ± 7.67 | 3.41 ± 1.14 | 23.60 ± 3.50 | 28.51 ± 7.09
2 | Seq ID: NO. 2: peptide sequence screened from M13 phage display peptide library, having binding specificity and affinity to HCT-8 or CR-CSC (GAISFDHVHP) | 20.85 ± 0.61% | 45.16% and 45.16 ± 7.12% | 20.45 ± 4.04 | 3.13 ± 0.62 | 23.02 ± 2.77 | 34.29 ± 5.22
3 | Seq ID: NO. 3: peptide sequence screened from M13 phage display peptide library, having binding specificity and affinity to HCT-8 or CR-CSC (MNAKWPIENLMN) | 49.79% and 49.79 ± 5.34% | 9.42 ± 2.67% | 10.68 ± 5.08 | 3.58 ± 1.18 | 17.87 ± 6.18 | 16.77 ± 6.49
